Laboratory results taken from BindingDB's records for patent US20250282782 (Genzyme, 2025).

Molecular target: T1, Tyrosine-protein phosphatase non-receptor type 11 (Homo sapiens, UniProt Q06124)
T1 sequence (Q06124 whole entry): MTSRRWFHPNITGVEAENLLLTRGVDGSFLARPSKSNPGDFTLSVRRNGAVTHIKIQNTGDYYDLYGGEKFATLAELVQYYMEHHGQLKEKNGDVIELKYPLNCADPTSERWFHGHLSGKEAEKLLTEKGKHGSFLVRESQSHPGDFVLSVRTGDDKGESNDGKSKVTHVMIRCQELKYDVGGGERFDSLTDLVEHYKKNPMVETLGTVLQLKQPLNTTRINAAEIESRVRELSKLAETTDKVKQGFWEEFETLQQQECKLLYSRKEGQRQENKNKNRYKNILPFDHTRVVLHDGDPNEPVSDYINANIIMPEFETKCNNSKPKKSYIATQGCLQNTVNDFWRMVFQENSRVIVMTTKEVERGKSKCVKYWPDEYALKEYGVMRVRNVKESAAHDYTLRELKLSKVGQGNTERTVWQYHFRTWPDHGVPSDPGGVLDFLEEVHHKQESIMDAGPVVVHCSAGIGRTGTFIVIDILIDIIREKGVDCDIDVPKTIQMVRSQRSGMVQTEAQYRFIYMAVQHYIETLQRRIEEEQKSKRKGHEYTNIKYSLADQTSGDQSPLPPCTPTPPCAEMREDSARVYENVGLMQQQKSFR
Assay: Inhibition of SHP2 Phosphatase Activity Assay
Description: Inhibition of SHP2 phosphatase activity was evaluated using human recombinant 6His-Nterm (SEQ ID NO: 1) SHP2 full-length (Thr2-Arg593, R&D system), NsCs bi-phosphorylated activating peptide (NH2-LN(pY)AQLWHA(PEG8)LTI(pY)ATIRRF-Amide.acetate (SEQ ID NO: 2), Thermofischer Scientific) and DiFMUP as surrogate phosphatase substrate (Molecular Probes). All reactions were performed at room temperature in 384-well black polystyrene non-binding plate (Corning) with the assay buffer (50 mM HEPES-NaOH pH 7.2, 100 mM NaCl, 0.5 mM EDTA, 0.001% Brij35 including 0.02% BSA and 1 mM DTT added extemporaneously). SHP2 was pre-incubated at least 10 min with the activating peptide (0.2 nM and 100 nM, respectively). 10 μL of this mixture was added to the assay plate, that already contained 15 nL of the compound (1000-0.05 nM). After 30 min pre-incubation, the enzymatic reaction was initiated by the addition of 5 μL DiFMUP in assay buffer without BSA (20 μM). The reaction was stopped by the addition of 15 μL sodium pervanadate solution (100 μM) after 45 min incubation. The fluorescence signal was measured at excitation and emission wavelengths of 350 nm and 450 nm, respectively, using a Pherastar instrument (BMG-LabTech).

| Compound | IC50 [µM] |
| --- | --- |
| Cc1nc(N2CCC3(CC2)Cc2ncccc2[C@H]3N)c2ccnn2c1-c1cc2c(cc1F)OCCO2 [US20250282782, Compound 58] | 0.035 |
| Cc1nc(N2CCC3(CC2)Cc2scnc2[C@H]3N)c2ccnn2c1-c1ccccc1F [US20250282782, Compound 66] | 0.022 |
| Cc1nc(N2CCC3(CC2)Cc2scnc2[C@H]3N)c2ccnn2c1-c1cnn(C)c1C [US20250282782, Compound 67] | 0.115 |
| Cc1nc(N2CCC3(CC2)Cc2ncsc2[C@H]3N)c2ccnn2c1-c1cnn(C)c1C [US20250282782, Compound 72] | 0.027 |
| Cc1cc2c(cn1)CC1(CCN(c3nc(C)c(-c4cnn(C)c4C)n4nccc34)CC1)[C@@H]2N [US20250282782, Compound 113] | 0.028 |
| Cc1ccc(F)c(-c2c(C)nc(N3CCC4(CC3)Cc3ncccc3[C@H]4N)c3ccnn23)c1 [US20250282782, Compound 205] | 0.011 |
